Reference: ChEMBL document CHEMBL1201862, “PubChem BioAssay data set” (2004)
The source made the active and inactive calls.

Key:
Leucine aminopeptidase = biological target: T1, Leucine aminopeptidase (Plasmodium falciparum 3D7, UniProt Q8IL11); test: P. falciparum M17LAP inhibitors, primary screen, biochemical, fluorogenic H-Leu-NHMec substrate, 1536-well (AID 1619); type: functional
T1 sequence (Q8IL11 whole entry): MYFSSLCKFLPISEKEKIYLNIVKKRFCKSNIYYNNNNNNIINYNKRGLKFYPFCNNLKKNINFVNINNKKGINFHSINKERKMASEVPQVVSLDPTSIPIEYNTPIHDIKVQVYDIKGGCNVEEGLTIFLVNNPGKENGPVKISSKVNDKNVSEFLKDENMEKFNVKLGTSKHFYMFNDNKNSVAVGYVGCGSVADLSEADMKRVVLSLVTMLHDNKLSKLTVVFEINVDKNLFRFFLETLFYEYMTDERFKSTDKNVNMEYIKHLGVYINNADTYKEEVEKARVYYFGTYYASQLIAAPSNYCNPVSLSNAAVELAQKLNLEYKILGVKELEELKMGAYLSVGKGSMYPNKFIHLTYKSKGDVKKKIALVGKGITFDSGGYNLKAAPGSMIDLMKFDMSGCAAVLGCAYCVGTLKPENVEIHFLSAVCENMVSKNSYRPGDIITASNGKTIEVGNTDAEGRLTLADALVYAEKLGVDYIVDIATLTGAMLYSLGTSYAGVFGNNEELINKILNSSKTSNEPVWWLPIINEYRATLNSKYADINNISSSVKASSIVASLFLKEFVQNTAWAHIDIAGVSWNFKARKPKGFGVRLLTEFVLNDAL

Aminopeptidase N = biological target: T2, Aminopeptidase N (Plasmodium falciparum FcB1/Columbia, UniProt O96935); test: P. falciparum M1AAP inhibitors, biochemical, fluorogenic H-Leu-NHMec substrate, 1536-well (AID 1445); design: species or system Plasmodium falciparum 3D7, 3D7
T2 sequence (O96935 whole entry): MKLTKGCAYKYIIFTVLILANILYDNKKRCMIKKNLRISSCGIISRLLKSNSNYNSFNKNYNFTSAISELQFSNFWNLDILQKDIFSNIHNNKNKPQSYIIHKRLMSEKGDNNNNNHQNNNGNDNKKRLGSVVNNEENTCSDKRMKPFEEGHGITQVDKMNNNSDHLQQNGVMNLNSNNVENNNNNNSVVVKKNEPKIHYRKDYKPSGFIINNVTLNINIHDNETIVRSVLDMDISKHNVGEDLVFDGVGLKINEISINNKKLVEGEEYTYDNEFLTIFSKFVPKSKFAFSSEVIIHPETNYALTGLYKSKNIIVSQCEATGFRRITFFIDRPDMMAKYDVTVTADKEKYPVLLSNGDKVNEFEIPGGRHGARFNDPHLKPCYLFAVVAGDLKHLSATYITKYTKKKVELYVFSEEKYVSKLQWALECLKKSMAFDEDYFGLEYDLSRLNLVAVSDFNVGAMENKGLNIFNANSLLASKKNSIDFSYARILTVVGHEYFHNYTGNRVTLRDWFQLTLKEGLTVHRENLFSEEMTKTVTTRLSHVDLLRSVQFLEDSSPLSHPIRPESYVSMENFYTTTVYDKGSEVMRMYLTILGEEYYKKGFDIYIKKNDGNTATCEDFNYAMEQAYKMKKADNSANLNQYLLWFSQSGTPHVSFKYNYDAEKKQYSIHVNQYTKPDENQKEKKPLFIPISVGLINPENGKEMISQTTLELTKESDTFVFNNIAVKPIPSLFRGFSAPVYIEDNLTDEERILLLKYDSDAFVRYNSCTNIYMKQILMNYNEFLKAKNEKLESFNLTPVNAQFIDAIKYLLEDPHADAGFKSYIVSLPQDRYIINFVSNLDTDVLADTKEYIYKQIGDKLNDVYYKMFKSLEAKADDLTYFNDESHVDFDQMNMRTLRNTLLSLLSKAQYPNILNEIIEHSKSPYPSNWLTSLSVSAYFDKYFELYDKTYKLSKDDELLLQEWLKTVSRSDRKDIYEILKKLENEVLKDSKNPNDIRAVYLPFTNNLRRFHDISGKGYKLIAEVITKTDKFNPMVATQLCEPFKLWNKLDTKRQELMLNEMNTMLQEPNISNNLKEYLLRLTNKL

[1] = cytotoxicity in HEK-293T cells, dose response, cytotoxicity control for BCR NF-kB inhibitor project, luminescence, B-cell screen hits (AID 489021); type: functional, cell-based;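 further: HEK-293T cells carrying an NF-kB luciferase reporter; cells exposed to compound for about 14 hours before viability readout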
HEK293 = test: inhibitors of LMP1-driven NF-kB reporter, dose response, cell-based, HEK293, luciferase, cherry-pick (AID 588343); type: functional; conditions: Homo sapiens
[2] = biological target: T3, Short transient receptor potential channel 4 (Mus musculus, UniProt Q9QUQ5); test: mouse TRPC4 channel inhibitors, dose response, cell-based, HEK293 TRPC4/mu-opioid, Fluo-4 calcium (AID 434942); type: functional;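 further: potency of inhibitors blocking the TRPC4 calcium response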
T3 sequence (Q9QUQ5 whole entry): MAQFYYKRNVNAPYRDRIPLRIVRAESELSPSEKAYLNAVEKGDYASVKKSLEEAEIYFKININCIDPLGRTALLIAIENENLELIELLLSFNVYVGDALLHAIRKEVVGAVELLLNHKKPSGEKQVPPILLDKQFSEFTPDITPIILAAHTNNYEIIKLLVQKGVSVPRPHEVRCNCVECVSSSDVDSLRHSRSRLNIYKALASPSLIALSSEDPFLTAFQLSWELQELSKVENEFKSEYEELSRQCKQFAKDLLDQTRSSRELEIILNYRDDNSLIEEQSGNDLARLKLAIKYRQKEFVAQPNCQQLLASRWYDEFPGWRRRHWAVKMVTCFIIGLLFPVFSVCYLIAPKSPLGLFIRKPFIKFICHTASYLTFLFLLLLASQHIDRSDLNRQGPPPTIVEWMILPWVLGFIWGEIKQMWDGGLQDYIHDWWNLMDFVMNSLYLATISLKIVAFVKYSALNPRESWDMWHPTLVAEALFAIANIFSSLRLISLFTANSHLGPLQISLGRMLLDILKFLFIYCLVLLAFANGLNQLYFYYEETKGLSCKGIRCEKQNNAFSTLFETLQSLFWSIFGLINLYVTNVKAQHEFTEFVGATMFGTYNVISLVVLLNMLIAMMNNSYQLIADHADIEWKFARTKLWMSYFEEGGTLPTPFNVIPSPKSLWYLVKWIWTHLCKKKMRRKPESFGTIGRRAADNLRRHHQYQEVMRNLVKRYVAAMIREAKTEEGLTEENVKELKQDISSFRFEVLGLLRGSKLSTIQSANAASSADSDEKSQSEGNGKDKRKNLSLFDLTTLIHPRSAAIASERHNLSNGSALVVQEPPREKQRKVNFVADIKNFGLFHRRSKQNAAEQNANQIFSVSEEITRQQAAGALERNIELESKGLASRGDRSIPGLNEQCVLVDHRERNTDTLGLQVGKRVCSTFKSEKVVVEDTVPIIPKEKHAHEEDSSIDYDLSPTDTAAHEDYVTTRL

[3] = inhibitors of firefly luciferase expression or activity, dose response, H4 neuroglioma cells, luminescence (AID 1990); type: functional, cell-based
cells [4] = type: functional, cell-based
[5] = Luminescence Cell-Based Dose Response HTS to Identify Inhibitors of 5'UTR Stem-Loop Driven Prion Protein mRNA Translation in H4 Neuroglioblastoma Cells. [Related pubchem assays: 1827 (Project Summary), 1813 (Primary HTS)]; type: functional
[6] = inhibitors of SNCA 5'UTR-driven reporter translation, confirmation, H4 neuroglioma cells, luminescence (AID 1988); type: functional, cell-based
cells [7] = type: functional, cell-based; remark: listed apart in the source

With CC(C)(C)C1CCc2c(C(=O)NNC(=O)CCC(=O)O)csc2C1 (configuration not stated) the IC50 (Leucine aminopeptidase) was 14.5 µM (active).
For CCCN1C(=O)/C(=C/c2c(N3CCNC(=O)C3CC(=O)OCC)nc3c(C)cccn3c2=O)SC1=S (configuration not stated), the IC50 (Aminopeptidase N) was 34.1 µM (active) and the IC50 [1] was 50 µM (inactive).
With O=C(O)C1CCCCC1C(=O)Nc1cc(C(F)(F)F)ccc1Cl (configuration not stated) the IC50 (Leucine aminopeptidase) was 17.5 µM (active).
In the case of O=C(/C=C/Nc1cccc(C(F)(F)F)c1)C(F)(F)F, the AC50 (HEK293) is reported as > 350 µM (inactive).
With CC(=O)OC1(c2ccccc2)CCN(C2CCCCC2)CC1C (configuration not stated) the EC50 [2] was 1.06 µM (active).
With O=C(O)CCC(=O)Nc1sc2c(c1C(=O)Nc1cccc3ccccc13)CCCCC2 the IC50 (Leucine aminopeptidase) was 51 µM (active).
For Cc1ccccc1NC(=O)CN1C(=O)NC2(CCCCC2)C1=O, the IC50 (Leucine aminopeptidase) was 71.9 µM (active).
For C(=N\Nc1nc2ccccc2[nH]1)/c1cccc2nccnc12, the EC50 [3] was 18.5 µM (active), the EC50 (cells [4]) was > 350 µM (not active) and the EC50 [5] was 9.69 µM (active). For the same compound, the EC50 [6] was 5.54 µM (active), the EC50 (cells [7]) was > 350 µM (not active) and the AC50 (HEK293) was 105 µM (active).
For Cc1ncc(CO)c(/C=N/NC(=O)c2ccc(Br)cc2)c1O, the IC50 (Aminopeptidase N) was 14.4 µM (active).
With O=C(O)CCCC(=O)N1N=C(c2c(O)nc3ccc(Cl)cc3c2-c2ccccc2)CC1c1cccs1 (configuration not stated) the IC50 (Aminopeptidase N) was 20.3 µM (active).
In the case of O=C(CCS(=O)(=O)c1ccccc1)Nc1nccs1, the AC50 (HEK293) is reported as 48.6 µM (active).
